Experiment [1] relates to HLA-A*1101 positive Tm EBV transformed cells pulsed with the peptide. In words: Induction of specific CTL after a single stimulation with the peptides in PBMC from HIV-subtype B-seropositive patients carrying HLA-A11.
Experiment [2] concerns C1R-A*1101 cells infected with vaccinia virus expressing HIV-1 Pol protein or Env protein. Format: cell-based, human.
Experiment [3] deals with HLA-A*1101 positive Tm EBV transformed cells pulsed with the peptide. In words: Induction of specific CTL by a single stimulation with the peptides in PBL from HIV-seropositive patients carrying HLA-A11 (51Cr release CTL assay). The note with it: for patients in whom peptide-specific CTL activity was induced: six HIV-1 seropositive patients carrying HLA-A*1101.
For experiment [4] the test system is unchanged. In words: Induction of specific CTL after a single stimulation with the peptides in PBMC from HIV-subtype E-seropositive patients carrying HLA-A11. Conditions: for patients from whom the specific CTL could be induced: HIV-1 subtype E infected patients carrying HLA-A11.
The mark [5] stands for this setting: patient KI-005, effector:target 40:1, peptide 1 μM.
[6] abbreviates: patient KI-015, effector:target 40:1, peptide 1 μM.
Setting [7] is: patient KI-030, effector:target 40:1, peptide 1 μM.
The mark [8] stands for this setting: patient KI-035, effector:target 40:1, peptide 1 μM.
The mark [9] stands for this setting: patient KI-036, effector:target 40:1, peptide 1 μM.
Where [10] appears, read: patient five, effector:target 5:1, peptide 1 μM.
[11] abbreviates: patient five, effector:target 40:1, peptide 1 μM.
The mark [12] stands for this setting: patient four, effector:target 5:1, peptide 1 μM.
Setting [13] is: patient four, effector:target 40:1, peptide 1 μM.
The mark [14] stands for this setting: patient one, effector:target 5:1, peptide 1 μM.
[15] abbreviates: patient one, effector:target 40:1, peptide 1 μM.
The mark [16] stands for this setting: patient six, effector:target 5:1, peptide 1 μM.
The mark [17] stands for this setting: patient six, effector:target 40:1, peptide 1 μM.
[18] abbreviates: patient three, effector:target 5:1, peptide 1 μM.
[19] abbreviates: patient three, effector:target 40:1, peptide 1 μM.
Setting [20] is: patient two, effector:target 5:1, peptide 1 μM.
Setting [21] is: patient two, effector:target 40:1, peptide 1 μM.
Where [22] appears, read: patient TT-005, effector:target 40:1, peptide 1 μM.
The mark [23] stands for this setting: patient TT-007, effector:target 40:1, peptide 1 μM.
The mark [24] stands for this setting: patient TT-008, effector:target 40:1, peptide 1 μM.
The mark [25] stands for this setting: patient TT-009, effector:target 40:1, peptide 1 μM.
[26] abbreviates: patient TU-002, effector:target 40:1, peptide 1 μM.
Setting [27] is: patient TU-003, effector:target 40:1, peptide 1 μM.
The mark [28] stands for this setting: patient TU-007, effector:target 40:1, peptide 1 μM.

Marks after values point to notes of the source that are not given here.

Regarding “AVDLSHFLK (Human immunodeficiency virus type 1) [Nef 84-9, reference compound]”, the “relative cell lysis (%)” value is 25.3* % in experiment [1] (setting [5]); 68.6% in experiment [1] (setting [6]); 6.6% in experiment [1] (setting [7]); 5.8% in experiment [1] (setting [8]); 16.5% in experiment [1] (setting [9]).
SVITQACPK [SF2-Env202-9]: the “killing of vaccinia-infected target cells by peptide-specific CTL clones (endogenous processing and presentation by HLA-A*1101)” value in experiment [2] was “contain HLA-A*1101 restricted HIV-1 specific CTL epitopes”.
Take QIYAGIKVK [SF2-Pol424-9]: the “relative cell lysis (%)” value in experiment [3] (setting [10]) is −1.7%; in experiment [3] (setting [11]), −3.7%; in experiment [3] (setting [12]), 11.7%; in experiment [3] (setting [13]), 27.4** %; in experiment [3] (setting [14]) it was 3.1%; in experiment [3] (setting [15]), −0.2%. The “relative cell lysis (%)” value in experiment [3] (setting [16]) is listed as 2.0%; in experiment [3] (setting [17]), 2.3%; in experiment [3] (setting [18]) it was −3.3%; in experiment [3] (setting [19]), 7.0%; in experiment [3] (setting [20]), −0.2%; in experiment [3] (setting [21]), 4.9%. The “patients in whom peptide-specific CTL activity was induced” value in experiment [3] was “one of six patients”. Besides, the “killing of vaccinia-infected target cells by peptide-specific CTL clones (endogenous processing and presentation by HLA-A*1101)” value in experiment [2] is recorded as “contain HLA-A*1101 restricted HIV-1 specific CTL epitopes”.
Turning to “AFDLSFFLK (Human immunodeficiency virus type 1) [Nef 84-9-2F6F]”, the “patients from whom the specific CTL could be induced” value in experiment [4] is on record as “six of seven”. Further, the “relative cell lysis (%)” value in experiment [4] (setting [22]) is reported as −1.3%; in experiment [4] (setting [23]), 24.6%; in experiment [4] (setting [24]), 75.5%; in experiment [4] (setting [25]), 76.5%; in experiment [4] (setting [26]) it was 15.4%; in experiment [4] (setting [27]) it was 41.2%. Besides, the “relative cell lysis (%)” value in experiment [4] (setting [28]) came to 64.2%.
Take IYQEPFKNLK [Pol496-505]: the “relative cell lysis (%)” value is −2.8% in experiment [3] (setting [10]); 4.9% in experiment [3] (setting [11]); 4.6% in experiment [3] (setting [12]); 8.00% in experiment [3] (setting [13]); −2.9% in experiment [3] (setting [14]); −0.6% in experiment [3] (setting [15]). The “relative cell lysis (%)” value is 3.0% in experiment [3] (setting [16]); 12.9% in experiment [3] (setting [17]); 3.2% in experiment [3] (setting [18]); 5.1% in experiment [3] (setting [19]); 2.6% in experiment [3] (setting [20]); 2.5% in experiment [3] (setting [21]). The “patients in whom peptide-specific CTL activity was induced” value in experiment [3] is “one of six patients”.
Take “ALDLSHFLK (Human immunodeficiency virus type 1) [Nef 84-9-2L]”: the “patients from whom the specific CTL could be induced” value in experiment [1] (HIV-1 subtype B infected patients carrying HLA-A11) is “three of five”. The “relative cell lysis (%)” value in experiment [1] (setting [5]) is reported as 68.3%; in experiment [1] (setting [6]), 6.3%; in experiment [1] (setting [7]), 5.5%; in experiment [1] (setting [8]), 16.4%; in experiment [1] (setting [9]) it was 50.4%.
On to “QIIEELIKK (Human immunodeficiency virus type 1) [Pol 675-9-5E]”, for which the “patients from whom the specific CTL could be induced” value in experiment [4] is given as “five of seven”. Moreover, the “relative cell lysis (%)” value is 3.4* % in experiment [4] (setting [22]); 55.1% in experiment [4] (setting [23]); 23.4% in experiment [4] (setting [24]); 63.8% in experiment [4] (setting [25]); 3.4% in experiment [4] (setting [26]); 0.2% in experiment [4] (setting [27]). For the same sequence, the “relative cell lysis (%)” value in experiment [4] (setting [28]) was determined as 5.7%.
“DPNPQEVVL (Human immunodeficiency virus type 1) [Env77-85]”: the “relative cell lysis (%)” value is on record as −3.6% in experiment [3] (setting [10]); 1.7% in experiment [3] (setting [11]); 1.5% in experiment [3] (setting [12]); 2.5% in experiment [3] (setting [13]); −0.1% in experiment [3] (setting [14]); 0.2% in experiment [3] (setting [15]). Moreover, the “relative cell lysis (%)” value in experiment [3] (setting [16]) is given as 0.0%; in experiment [3] (setting [17]), 0.5%; in experiment [3] (setting [18]), −2.8%; in experiment [3] (setting [19]) it was −0.3%; in experiment [3] (setting [20]), −0.4%; in experiment [3] (setting [21]), −1.1%.
For “QIIEKLIEK (Human immunodeficiency virus type 1) [Pol 675-9-5K8E]”, the “patients from whom the specific CTL could be induced” value in experiment [4] is reported as “two of six”. The “relative cell lysis (%)” value is given as −4.1% in experiment [4] (setting [22]); 21.7% in experiment [4] (setting [23]); 10.3% in experiment [4] (setting [24]); 4.5% in experiment [4] (setting [25]); 5.6% in experiment [4] (setting [26]); −5.6% in experiment [4] (setting [27]).
Consider “AIFQSSMTK (Human immunodeficiency virus type 1) [Pol313-321]”, for which the “relative cell lysis (%)” value in experiment [3] (setting [10]) was −3.7%; in experiment [3] (setting [11]), 2.8%; in experiment [3] (setting [12]), 26.8%; in experiment [3] (setting [13]), 53.5%; in experiment [3] (setting [14]), 3.7%; in experiment [3] (setting [15]) it was 13.6%. Besides, the “relative cell lysis (%)” value in experiment [3] (setting [16]) is recorded as 1.1%; in experiment [3] (setting [17]), 0.7%; in experiment [3] (setting [18]), 2.3%; in experiment [3] (setting [19]) it was −2.4%; in experiment [3] (setting [20]) it was 8.2%; in experiment [3] (setting [21]), 31.1%. Also, in experiment [3], the “patients in whom peptide-specific CTL activity was induced” value was “three patients”.

The values above are taken from patent publication US6869933B2, “HIV-specific CTL inducing peptides and medicaments for preventing or treating AIDS comprising the peptides” (Ajinomoto Co., Inc., priority 1999, dated 2005).
